Laboratory results reported in patent US20060142308A1, “Synergistic combination comprising roflumilast and formoterol” (Atlanta Pharma AG, priority 2002, published 2006).

Test system: ovalbumin (OVA)-sensitized and OVA-challenged Brown Norway rats
Assay: Late inflammatory airway reaction in the ovalbumin-sensitized/-challenged Brown-Norway rat (BAL fluid eosinophils, total cells, protein)
Format: in vivo
Details: for Mean % Inhibition of Eosinophils: BAL fluid 48 h after OVA challenge; for Mean % Inhibition of Eosinophils / Mean % Inhibition of Protein: drug 1 h before challenge, p.o., Roflumilast 1.0, Formoterol 3.0, combination 1.0 + 3.0 μmol/kg; for Mean % Inhibition of Protein: cell-free BAL fluid 48 h after OVA challenge
Experimental: Late Inflammatory Airway Reaction in the Ovalbumin-Sensitized/-Challenged Brown-Norway Rat
Anti-inflammatory activity of Roflumilast and formoterol was determined in ovalbumin (OVA)-sensitized and OVA-challenged Brown Norway rats. Sensitization was done by simultaneous injection of Bordetella pertussis suspension i.p. and OVA/AHG suspension s.c. on day 1, 14 and 21. 28 days after start of sensitization, conscious Brown-Norway rats were challenged by inhalation of the aerosolized OVA solution for 1 h (˜20 ml/h). Non-challenged, only sensitized animals were used as baseline control. The drugs (thoroughly mixed with lactose) or the placebo control (lactose) were administered intratracheally (i.t.) as dry powders 1 h before OVA-challenge. 48 h later, OVA-challenged or non-challenged animals were anaesthetized and bronchoalveolar lavage (BAL) was performed using 3×4 ml BAL buffer per animal. The number of total cells and eosinophils in the BAL fluid, and the concentration of protein in the cell-free BAL fluid were determined. Drug-induced relative changes were calculated and statistically analyzed by the Jonckheere Terpstra test.

Compound	effects on total cell and eosinophil influx into alveolar space and protein levels in BAL fluid (3 μmol/kg i.t., data failed to reach significance)	Mean % Inhibition of Eosinophils	Mean % Inhibition of Protein	effects on cell infiltration and protein accumulation (0.3 μmol/kg i.t.)
COc1ccc(CC(C)NCC(O)c2ccc(O)c(NC=O)c2)cc1 (stereo not drawn) [Formoterol]	exhibited inhibitory effects	35%	46%	
O=C(Nc1c(Cl)cncc1Cl)c1ccc(OC(F)F)c(OCC2CC2)c1 [Roflumilast]		0%	15%	did not show any significant effects
